From patent US8883801B2, “Substituted pyrazolo[1,5-a]pyrimidines as mTOR inhibitors” (Merck Sharp & Dohme Corp., priority 2010, dated 2014)
Read-outs that look alike come from different tables or passages of the source.

Legend:
human mTOR enzyme = human mTOR enzyme (Homo sapiens, UniProt P42345); test: HTRF mTOR enzyme (kinase) assay; assay type: biochemical; settings: 5 μM ATP, 0.2 μM GST-S6K, read-out: hMTOR IC50
[1] = test system: mTORC1 activity: phosphorylated 4E-BP1 Thr37/46 (p4E-BP1 Thr37/46) in PC3 cells; test: mTOR target engagement assay, immunofluorescent cell-based, mTORC1 readout; settings: 90 min treatment, read-out: P4EBP1 IC50
Method: The target engagement of mTOR kinase inhibitors was evaluated using an immunofluorescent cell-based assay. In this assay, inhibition of mTORC1 activity was measured by the reduction in the level of phosphorylated 4E-BP1Thr37/46 (p4E-BP1 Thr37/46), and inhibition of mTORC2 activity was measured by the reduction of phosphorylated AKTSer473 (pAKT S473).
PC3 cells (prostate tumor cell-line that contains a mutation in the tumor suppressor PTEN, that promotes the phosphorylation and activation of AKT and 4E-BP1) were used in the immunofluorescence assay. PC3 cells were seeded on 384 well plates (black clear bottom, Matrix #4332) overnight. PC3 cells were then treated with 40 μl of the serially diluted test compounds (in 5% fetal bovine serum, F12 medium containing 0.25% DMSO) for ninety minutes at 37° C. The test compound solution was removed, and the plates were washed gently two times with 25 μl phosphate buffered saline (PBS). The cells were fixed by adding 25 μl of Prefer reagent (from Anatech LTD, Cat#414, a glyoxal fixative for fixing proteins within a cell) for sixty minutes followed by three washes with PBS. 5% Goat serum in PBS/0.3% Triton was used to block non-specific binding (60 minutes).
The primary antibodies targeting pAKT S473 and p4E-BP1 Thr37/46 were diluted into PBS/0.3% Triton and incubated with the cells overnight at 4° C. The antibodies targeting pAKTS473 (Cat#4085, Cell signaling) and p4E-BP1 Thr37/46 (Cat#2855, Cell signaling) were used at a 1:100 dilution. Plates were washed three times with PBS/0.1% Tween 20 before adding the secondary antibody at a 1:200 dilution. (goat anti-rabbit containing a fluorescent label, Alexa Fluor 488, Cat#A11008, Invitrogen) in PBS/0.3% Triton for 60 minutes.
Finally, the plates were washed three times with PBS/0.1% Tween 20 and the fluorescent intensity was read using an Analyst HT from Molecular Devices. The fluorescent intensity values from the serially diluted compound treatment group were analyzed using the Xlfit 4 program ([…]) (Formula 205: Y=Bottom+(Top-Bottom)/(1+(IC50/X)^Hillslope) to generate the IC50 value. Where Top is the maximum signal without Compound (+DMSO only) and Bottom represents maximum inhibition. Y is the fluorescence at some compound concentration. The control used to determine the fluorescent intensities for 100% pAKT S473 or 100% phosphorylated p4E-BP1 Thr37/46 were measured from untreated wells that contained only DMSO, instead of test compound.

[2] = test system: mTORC2 activity: phosphorylated AKT Ser473 (pAKT S473) in PC3 cells; test: mTOR target engagement assay, immunofluorescent cell-based, mTORC2 readout; settings: 90 min treatment
Outline: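 Read-out is immunofluorescence intensity, normalized to DMSO-only wells and fitted to a sigmoidal Hill equation for IC50. The mTORC1 arm probes phospho-4E-BP1 Thr37/46 and the mTORC2 arm phospho-AKT Ser473.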

[3] = Homo sapiens, PC-3, 1.5 h, rated class

Chain of human mTOR enzyme (P42345 1360-2549 limits assumed): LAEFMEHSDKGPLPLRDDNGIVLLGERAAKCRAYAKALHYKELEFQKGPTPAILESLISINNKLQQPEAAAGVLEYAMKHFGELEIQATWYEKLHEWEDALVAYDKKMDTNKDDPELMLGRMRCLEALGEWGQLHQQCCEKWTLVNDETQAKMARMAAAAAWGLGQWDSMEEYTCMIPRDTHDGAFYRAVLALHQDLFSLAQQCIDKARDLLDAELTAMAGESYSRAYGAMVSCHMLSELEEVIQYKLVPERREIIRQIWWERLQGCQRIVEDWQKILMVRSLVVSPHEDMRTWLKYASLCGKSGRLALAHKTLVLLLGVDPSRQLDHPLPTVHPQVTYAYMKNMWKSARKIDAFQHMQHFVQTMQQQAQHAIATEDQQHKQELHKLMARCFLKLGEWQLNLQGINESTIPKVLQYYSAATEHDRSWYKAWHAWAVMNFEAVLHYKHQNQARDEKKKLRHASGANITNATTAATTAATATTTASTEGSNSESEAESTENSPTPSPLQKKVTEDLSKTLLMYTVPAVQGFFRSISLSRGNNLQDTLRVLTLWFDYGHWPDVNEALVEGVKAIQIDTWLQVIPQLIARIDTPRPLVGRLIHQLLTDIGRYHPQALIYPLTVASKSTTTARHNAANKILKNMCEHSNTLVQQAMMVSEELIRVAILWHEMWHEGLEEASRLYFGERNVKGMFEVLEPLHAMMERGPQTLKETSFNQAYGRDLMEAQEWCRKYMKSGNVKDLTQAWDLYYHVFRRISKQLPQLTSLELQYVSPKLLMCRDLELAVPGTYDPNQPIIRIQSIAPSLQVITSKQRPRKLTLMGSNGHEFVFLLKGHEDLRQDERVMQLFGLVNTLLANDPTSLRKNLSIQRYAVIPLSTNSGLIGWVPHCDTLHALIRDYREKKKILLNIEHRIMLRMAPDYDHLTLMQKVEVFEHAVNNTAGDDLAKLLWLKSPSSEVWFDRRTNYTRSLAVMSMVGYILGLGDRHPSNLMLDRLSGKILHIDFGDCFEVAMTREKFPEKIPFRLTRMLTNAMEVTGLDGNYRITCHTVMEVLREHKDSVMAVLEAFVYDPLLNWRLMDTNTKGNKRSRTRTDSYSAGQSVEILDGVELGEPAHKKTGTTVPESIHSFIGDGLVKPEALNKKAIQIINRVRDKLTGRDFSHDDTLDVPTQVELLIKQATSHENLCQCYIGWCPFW

| SMILES | IC50 (human mTOR enzyme; rated class) [µM] | IC50 [1, 3] [µM] | IC50 [2, 3] [µM] | IC50 (human mTOR enzyme; numeric value) [µM] | IC50 ([1]; numeric value) [µM] | IC50 ([2]; numeric value) [µM] | IC50 ([1]; rated class) [µM] | IC50 ([2]; rated class) [µM] |
| --- | --- | --- | --- | --- | --- | --- | --- | --- |
| C[C@]1(C(=O)O)CC[C@H](c2nc3c(-c4ccc(-c5ccccc5)nc4)cnn3c(N)c2Br)CC1 [Compound 1, (1R,4R)-4-(7-amino-6-bromo-3-(6-phenylpyridin-3-yl)pyrazolo[1,5-a]pyrimidin-5-yl)-1-methylcyclohexanecarboxylic acid] |  |  |  | 0.00133 | 0.85 | 0.275 |  |  |
| CC(=O)c1c(N)n2ncc(-c3ccc(-c4ccccc4)nc3)c2nc1[C@H]1CC[C@](C)(C(=O)O)CC1 [Compound 15, (1R,4R)-4-(6-acetyl-7-amino-3-(6-phenylpyridin-3-yl)pyrazolo[1,5-a]pyrimidin-5-yl)-1-methylcyclohexanecarboxylic acid] | 0.001 to 0.1 | 0.1 to 1 | 0.1 to 1 |  |  |  |  |  |
| COC[C@]1(C(=O)O)CC[C@H](c2nc3c(-c4ccc(-c5ccccc5)nc4)cnn3c(N)c2C(C)=O)CC1 [Compound 18, (1R,4R)-4-(6-acetyl-7-amino-3-(6-phenylpyridin-3-yl)pyrazolo[1,5-a]pyrimidin-5-yl)-1-(methoxymethyl)-cyclohexane-carboxylic acid] | 0.001 to 0.1 | 0.1 to 1 | 0.001 to 0.1 |  |  |  |  |  |
| C[C@]1(C(=O)O)CC[C@H](c2nc3c(-c4ccc(-c5ccccc5)nc4)cnn3c(N)c2C#N)CC1 [Compound 25, (1R,4R)-4-(7-amino-6-cyano-3-(6-phenylpyridin-3-yl)pyrazolo[1,5-a]pyrimidin-5-yl)-1-methylcyclohexanecarboxylic acid] | 0.001 to 0.1 | 0.1 to 1 | 0.1 to 1 |  |  |  |  |  |
| C[C@]1(C(=O)O)CC[C@@H](c2nc3c(-c4ccc(-c5ccccc5)nc4)cnn3c(N)c2C#N)CC1 [Compound 26, (1S,4S)-4-(7-amino-6-cyano-3-(6-phenylpyridin-3-yl)pyrazolo[1,5-a]pyrimidin-5-yl)-1-methylcyclohexanecarboxylic acid] | 0.001 to 0.1 |  |  |  |  |  | 0.1 to 1 | 0.001 to 0.1 |
| CO[C@]1(C(=O)O)CC[C@H](c2nc3c(-c4ccc(-c5ccccc5)nc4)cnn3c(N)c2Br)CC1 [Compound 28, (1S,4S)-4-(7-amino-6-bromo-3-(6-phenylpyridin-3-yl)pyrazolo[1,5-a]pyrimidin-5-yl)-1-methoxycyclohexanecarboxylic acid] | 0.001 to 0.1 | 0.1 to 1 | 0.001 to 0.1 |  |  |  |  |  |
| CO[C@]1(C(=O)O)CC[C@@H](c2nc3c(-c4ccc(-c5ccccc5)nc4)cnn3c(N)c2Br)CC1 [Compound 29, (1R,4R)-4-(7-amino-6-bromo-3-(6-phenylpyridin-3-yl)pyrazolo[1,5-a]pyrimidin-5-yl)-1-methoxycyclohexane-carboxylic acid] | 0.001 to 0.1 | 0.1 to 1 | 0.1 to 1 |  |  |  |  |  |
| CO[C@]1(C(=O)O)CC[C@@H](c2nc3c(-c4cnn(-c5ccccc5)c4)cnn3c(N)c2Br)CC1 [Compound 30, (1R,4R)-4-(7-amino-6-bromo-3-(1-phenyl-1H-pyrazol-4-yl)pyrazolo[1,5-a]pyrimidin-5-yl)-1-methoxycyclohexane-carboxylic acid] | 0.001 to 0.1 | 0.1 to 1 | 0.1 to 1 |  |  |  |  |  |
| CO[C@]1(C(=O)O)CC[C@H](c2nc3c(-c4cnn(-c5ccccc5)c4)cnn3c(N)c2Br)CC1 [Compound 31, (1S,4S)-4-(7-amino-6-bromo-3-(1-phenyl-1H-pyrazol-4-yl)pyrazolo[1,5-a]pyrimidin-5-yl)-1-methoxycyclohexane-carboxylic acid] | 0.001 to 0.1 | 0.1 to 1 | 0.001 to 0.1 |  |  |  |  |  |
| CO[C@]1(C(=O)O)CC[C@H](c2nc3c(-c4ccc(-c5ccccc5)nc4)cnn3c(N)c2C(C)=O)CC1 [Compound 34, (1S,4S)-4-(6-acetyl-7-amino-3-(6-phenylpyridin-3-yl)pyrazolo[1,5-a]pyrimidin-5-yl)-1-methoxycyclohexanecarboxylic acid] | 0.001 to 0.1 | 0.1 to 1 | 0.1 to 1 |  |  |  |  |  |
| CO[C@]1(C(=O)O)CC[C@@H](c2nc3c(-c4ccc(-c5ccccc5)nc4)cnn3c(N)c2C(C)=O)CC1 [Compound 35, (1R,4R)-4-(6-acetyl-7-amino-3-(6-phenylpyridin-3-yl)pyrazolo[1,5-a]pyrimidin-5-yl)-1-methoxycyclohexane-carboxylic acid] | 0.001 to 0.1 | 0.1 to 1 | 0.001 to 0.1 |  |  |  |  |  |
| CO[C@]1(C(=O)O)CC[C@@H](c2nc3c(-c4cnn(-c5ccccc5)c4)cnn3c(N)c2C(C)=O)CC1 [Compound 36, (1R,4R)-4-(6-acetyl-7-amino-3-(1-phenyl-1H-pyrazol-4-yl)pyrazolo[1,5-a]pyrimidin-5-yl)-1-methoxycyclohexane-carboxylic acid] | 0.001 to 0.1 | 0.1 to 1 | 0.001 to 0.1 |  |  |  |  |  |

Second part, the compound after the results:

| IC50 (human mTOR enzyme; rated class) [µM] | IC50 [1, 3] [µM] | IC50 [2, 3] [µM] | IC50 (human mTOR enzyme; numeric value) [µM] | IC50 ([1]; numeric value) [µM] | IC50 ([2]; numeric value) [µM] | IC50 ([1]; rated class) [µM] | IC50 ([2]; rated class) [µM] | SMILES |
| --- | --- | --- | --- | --- | --- | --- | --- | --- |
| 0.001 to 0.1 | 0.1 to 1 | 0.1 to 1 |  |  |  |  |  | CC(=O)c1c(C2CCC(O)(CO)CC2)nc2c(-c3ccc(-c4cscn4)nc3)cnn2c1N (single isomer, unassigned) [Compound 144, 1-(7-amino-5-(4-hydroxy-4-(hydroxymethyl)-cyclohexyl)-3-(6-(thiazol-4-yl)pyridin-3-yl)pyrazolo[1,5-a]pyrimidin-6-yl)ethanone] |
| 0.001 to 0.1 | 0.1 to 1 | 0.001 to 0.1 |  |  |  |  |  | CO[C@]1(C(=O)O)CC[C@H](c2nc3c(-c4cnn(-c5ccccc5)c4)cnn3c(N)c2C(C)=O)CC1 [Compound 37, (1S,4S)-4-(6-acetyl-7-amino-3-(1-phenyl-1H-pyrazol-4-yl)pyrazolo[1,5-a]pyrimidin-5-yl)-1-methoxycyclohexane-carboxylic acid] |
| 0.001 to 0.1 | 0.1 to 1 | 0.001 to 0.1 |  |  |  |  |  | COCCO[C@]1(C(=O)O)CC[C@@H](c2nc3c(-c4cnn(-c5ccccc5)c4)cnn3c(N)c2S(C)(=O)=O)CC1 [Compound 40, (1R,4R)-4-(7-amino-6-(methylsulfonyl)-3-(1-phenyl-1H-pyrazol-4-yl)pyrazolo[1,5-a]pyrimidin-5-yl)-1-(2-methoxyethoxy)cyclohexanecarboxylic acid] |
| 0.001 to 0.1 | 5 to 15 | 5 to 15 |  |  |  |  |  | COCCO[C@]1(C(=O)O)CC[C@H](c2nc3c(-c4cnn(-c5ccccc5)c4)cnn3c(N)c2S(C)(=O)=O)CC1 [Compound 41, (1S,4S)-4-(7-amino-6-(methylsulfonyl)-3-(1-phenyl-1H-pyrazol-4-yl)pyrazolo[1,5-a]pyrimidin-5-yl)-1-(2-methoxyethoxy)-cyclohexanecarboxylic acid] |
| 0.001 to 0.1 | 5 to 15 | 2 to 5 |  |  |  |  |  | COCCO[C@]1(C(=O)O)CC[C@@H](c2nc3c(-c4ccc(-c5ccn(C)n5)nc4)cnn3c(N)c2S(C)(=O)=O)CC1 [Compound 42, (1R,4R)-4-(7-amino-3-(6-(1-methyl-1H-pyrazol-3-yl)pyridin-3-yl)-6-(methylsulfonyl)-pyrazolo[1,5-a]-pyrimidin-5-yl)-1-(2-methoxyethoxy)-cyclohexanecarboxylic acid] |
| 0.001 to 0.1 | 0.1 to 1 | 0.1 to 1 |  |  |  |  |  | COCCO[C@]1(C(=O)O)CC[C@@H](c2nc3c(-c4cnn(-c5ccc(F)cc5)c4)cnn3c(N)c2S(C)(=O)=O)CC1 [Compound 43, (1R,4R)-4-(7-amino-3-(1-(4-fluorophenyl)-1H-pyrazol-4-yl)-6-(methylsulfonyl)-pyrazolo[1,5-a]-pyrimidin-5-yl)-1-(2-methoxyethoxy)-cyclohexanecarboxylic acid] |
| 0.001 to 0.1 |  | 2 to 5 |  |  |  |  |  | COc1ccc(-c2ccc(-c3cnn4c(N)c(C(C)=O)c(C5CCC(CO)(OC)CC5)nc34)cn2)cn1 (stereo not shown) [Compound 171, 1-(7-amino-5-(4-(hydroxymethyl)-4-methoxycyclohexyl)-3-(6′-methoxy-2,3′-bipyridin-5-yl)pyrazolo[1,5-a]pyrimidin-6-yl)ethanone] |
| 0.001 to 0.1 |  | 0.001 to 0.1 |  |  |  |  |  | CC(=O)c1c(C2CCC(CO)(CO)CC2)nc2c(-c3ccc(-c4ccccc4)nc3)cnn2c1N [Compound 172, 1-(7-amino-5-(4,4-bis(hydroxymethyl)-cyclohexyl)-3-(6-phenylpyridin-3-yl)pyrazolo[1,5-a]pyrimidin-6-yl)ethanone] |
